Data taken from US7410955B2, “Therapeutic use of agonist ligands specific to G2A receptor” (Biosynergen, Inc., priority 2002, dated 2008).

How the values were obtained:
E. coli (DH5a) = assay: Bacteria-induced sepsis model; assay type: in vivo, ICR mice; settings: 10 mg/kg subcutaneous, 2 and 14 hours after i.p. E. coli
Procedure: ICR mice (25-30 g in body weight; MJ Ltd.) were intraperitoneally injected with alive 10^8 cells/ml E. coli (DH5a) that were suspended in 0.5 ml of PBS (phosphate-buffered saline) to cause peritonitis, thereby inducing sepsis.
After the peritoneal cavity of mice had been exposed, it was washed with sterilized saline (2 ml). The resultant solution was diluted with HBSS (Sigma Chemical Co., USA) in a ratio of 1/1000, and then 10 μl of each diluted solution was spread on Trypticase Soy agar (BBL, Becton Dickinson Co., USA) plates. After overnight incubation at 37° C., colony forming unit (CFU) was measured.
14 ICR mice of bacteria-induced septicemia model according to Reference Example <1-1> a) were divided into two groups of 7 mice. 7 mice were administered with 1-stearoyl LPC (Sigma Chemical Co., USA) dissolved in 1% BSA (bovine serum albumin) solution containing no fatty acid in an amount of 10 mg/kg by subcutaneous injection, 2 and 14 hours after E. coli was intraperitoneally injected, respectively (experimental group). The remaining 7 mice were administered with 1% BSA solution containing no fatty acid of the same amount as above, instead of LPC, in the same manner (control group). […] Also, the number of intraperitoneal E. coli cells 24 hours after the intraperitoneal injection was measured in accordance with the method described in Reference Example 3.

E. coli = assay: In vitro antibacterial activity of LPC (CFU on LB media); assay type: cell-based; settings: for CFU: 37° C., 12 hours
Procedure: Four petridishes per group were used. For a control group, only LB media was poured onto four 60-mm petridishes and hardened. The peritoneal cavity of mice according to Example <6-1> was washed with sterilized saline. The resultant solution was diluted with HBSS in a ratio of 1/100, and then 10 μl of the diluted solution was spread on the media for each group. Subsequently, after they had been incubated in a bacteria incubator maintained at 37° C. for 12 hours, colony forming unit (CFU) was visibly measured.

neutrophils = assay: Inhibition of anti-apoptosis of neutrophils by inflammation mediators (AcOr/EtBr staining); assay type: cell-based, human; settings: 15 μM and 30 μM
Excerpt: Neutrophils were isolated from healthy adults using discontinuous percoll gradient according to the method of Szucs, S. et al. (J. Immunol. Methods, 167: 245-251, 1994). First, plasmas were separated from heparinized whole blood, and red blood cells were depleted by dextran sedimentation. Thereafter, leukocytes were layered over a percoll gradient with densities of 1.077 and 1.094 (Pharmacia, Sweden). Separated neutrophil layers were recovered from the percoll gradient interface, and then washed with HBSS (Hank's balanced salt solution, Sigma Chemical Co., USA). The remaining pellet was resuspended in RPMI 1640 medium supplemented with 10% FBS (fetal bovine serum) and 2 mM gentamicin. As a result of the examination of the cytospin stained with Wright-Giemsa (Sigma Chemical Co., USA), it was observed that the resuspension solution contained 95% or more neutrophils. Also, as a result of examination using trypan blue dye exclusion method, 98% or more neutrophils were observed.
1×10^5 neutrophil cells isolated in above Example <1-1> were cultured in a 96-well plate to which RPMI1640 medium containing 10% FBS was added. Thereafter, they were treated with 1-stearoyl lysophosphatidylcoline (Sigma Chemical Co., USA) in concentrations of 15 μM and 30 μM, respectively. After 1 hour, they were treated with 1 μg/ml LPS (Sigma Chemical Co.). After 24 hours, the medium was removed from the plats, and the remaining cells were washed twice with PBS (phosphate-buffered saline) buffer at 4° C. The cells adhered to the bottom of the plate were all scraped and put into a 1.5-ml eppendorf tube. Then, they were centrifuged at 2500 rpm for 5 min, and the supernatant was removed. Again, 0.1 ml of PBS buffer at 4° C. was added to the pellet, which was then well mixed using pipetting. To 25 μl of the cell suspension was added 2 μl of AcOr/EtBr dye solution in which 100 μg/ml of acridine orange (AcOr) and 100 μg/ml of ethidium bromide (EtBr) were mixed. Then, the percentage of apoptotic cells/total cells was calculated with observing the neutrophil cells under a fluorescence microscope. […]

## CCCCCCCCCCCCCCCCCC(=O)OCC(O)COP(=O)([O-])OCC[N+](C)(C)C (centres unmarked) [1-stearoyl LPC, 1-stearoyl (18:0) lysophosphatidylcholine]
E. coli (DH5a); 24 hours after injection, P<0.01
  number of intraperitoneal E. coli cells: remarkably decreased
E. coli (DH5a); P<0.05
  death rate due to septicemia (survival rate over time): significantly suppressed
E. coli; LPC conc. 12 μM in LB media
  CFU: 661 ± 285
E. coli; LPC conc. 60 μM in LB media
  CFU: 639 ± 304
E. coli; LPC conc. 300 μM in LB media
  CFU: 611 ± 281
E. coli; summary of Table 1
  in vitro direct antibacterial effects against E. coli: no in vitro direct antibacterial effects
neutrophils; 1 hour before 1 μg/ml LPS, read after 24 hours
  percentage of neutrophil apoptosis (apoptotic cells/total cells) that had been decreased by LPS: increased by 1-stearoyl LPC in a concentration-dependent manner
neutrophils; 100 ng/ml GM-CSF, 100 ng/ml G-CSF or 100 ng/ml IFN-γ instead of LPS
  percentage of neutrophil apoptosis that had been decreased by endogenous inflammation mediators: increased by 1-stearoyl LPC in a concentration-dependent manner
